The text below walks through data of US20220062166A1, “Self-Gelling Solutions for Administration of Therapeutics to the Inner Ear” (Spiral Therapeutics, Inc., priority 2019, published 2022).

For data set [1], the system named is HEI-OC1 cells. The data set can be described thus: HEI-OC1 cell viability with CisPt. The note with it: CisPt 0 to 5 μg/mL. Format: cell-based.
The subject of data set [2] is HEI-OC1 cells. Description: Release of mitochondrial cyt c in HEI-OC1 cells with CisPt (flow cytometry). Format: cell-based. The note with it: HEI-OC1 cells; after CisPt alone or pre-incubated with LPT99. The procedure:
Flow cytometry was also used to characterize the effect of LPT99 in the release of mitochondrial cyt c in HEI-OC1 cells in vitro with CisPt prevention. Results
The effect of LPT99 on proliferation of non-apoptotic cells was studied. A549 cells were cultured in the presence of LPT99 for up to 6 days; the cell number was monitored by flow cytometry, and doubling time was calculated.
Background: Flow cytometry measures light scatter and fluorescence of single cells or particles in a stream.

A short description of data set [3]: GLP auditory safety study in rats after single TT administration. The procedure: The study consisted of 10 groups of rats: 6 groups for toxicology (Groups 1 to 6, 20 males and 20 females per group), and 4 groups for toxicokinetics (Groups 7 to 10, 6 males and 6 females per group).
All animals were assessed weekly for body weights and qualitative food consumption. In addition, otoscopic evaluation of the dosing sites (tympanic membrane, Groups 1 to 6) and ABR testing for hearing function were performed at predosing; and on Days 1, 7, and/or 14. Animals in the toxicology groups (Groups 1 to 6) were sacrificed on Day 1 (10 males and 10 females per group) and Day 14 (the remaining 10 males and 10 females per group). At necropsy, terminal blood samples were tested for hematology, serum chemistry, and coagulation parameters. Gross observations were recorded, and selected organs were weighed. One ear per animal in Groups 1 to 5 was collected and processed for cytocochleogram assessment.

As for `N.N.[Cl][Pt][Cl]` [CisPt, cisplatin, reference compound], the “HEI-OC1 cell viability IC50 of CisPt” value in data set [1] is 4.47 ± 1.94 µg/mL. Moreover, the “release of mitochondrial cyt c” value in data set [2] is 28% ±6.6%.

For gentamicin [reference compound], in data set [3] (Day 14, males, 400 mg/mL gentamicin vs saline controls, p≥0.05), the weight-normalized heart weights result was “increased weight-normalized heart weights”. Also, in data set [3] (Days 1, 7, 14 vs control), the “otoscopic scores (erythema, edema, wounds) of tympanic membranes” value is given as “increases in otoscopic scores”.
